The subject of data set [1] is 2-deoxy-D-glucose-induced hyperphagia. The settings on record: rats; cited from earlier work.
The conditions of data set [2]: across species tested; cited from earlier work.
For data set [3] the following is noted: rats, cited from earlier work.
The conditions of data set [4]: cited from earlier work.
The conditions of data set [5]: doses examined in clinical studies; cited from earlier work.
Data set [6] deals with human subjects with a Binge eating disorder (BED). The data set is described as follows: Open-label clinical study of oral psilocybin with psychotherapy in BED: eating behavior, body and psychological indicators. Format: in vivo. The settings on record: for BMI / Waist circumference / HADS Anxiety Score / HADS Depression Score / Acceptance and Action Questionnaire (AAQ-II) score / Patient Global Impression (PGI-I) score / Binge Eating Scale (BES) score: one subject; for Patient Global Impression (PGI-I) score: scale 1 (very much improved) to 7, baseline set at 4; for Binge Eating Scale (BES) score: BES ranges from 0 to 46.

For another data set, the system named is tissue phosphatases. The settings on record: in vitro studies; cited from earlier work.
The subject of data set [7] is human subjects with a Binge eating disorder (BED). The data set is described as follows: Psychedelic experience questionnaires (CEQ, MEQ30) one day after dosing. The settings on record: one subject.
Data set [8] shares this test system. The data set is described as follows: Safety evaluation in the clinical study (adverse events, vital signs). Type of data set: in vivo. On the procedure: Subjects were instructed to consume a low-fat breakfast at least one hour before reporting to the dosing session, where a single 25 mg oral dose of psilocybin was to be administered (Usona Institute). On dosing day, vital signs, for example, heart rate and BP, were assessed prior to administration of psilocybin and at 30, 60, 90, 120, 180, 240, 300, and 360 minutes post-administration. 12-lead ECGs were performed in triplicate pre-dosing and 60, 120, and 360 minutes after capsule administration. C-SSRS responses were reported prior to and following dosing. […] ACT-based clinical formulation continues as the therapist listens to emergent narratives and notes instances of psychological flexibility and inflexibility, especially present moment awareness, avoidance, and values.
Session monitors were trained to provide support to subjects if they experience acute anxiety, agitation, paranoia, or panic. However, in the event of an AE, a physician was consulted. AEs include psychiatric emergency, hypertension, acute chest pain, and headache. An oral benzodiazepine, for example, lorazepam, was available for treatment of panic or anxiety. An oral antipsychotic, for example, risperidone, was available for treatment of psychosis or severe agitation. If a subject experienced hypertension, a BP of >200 mm Hg systolic or >110 mm Hg diastolic for more than 15 minutes from four consecutive readings, the subject was transferred to the emergency room whether or not they were symptomatic. Labetalol or similar drug was available for treatment of hypertension. If a subject developed new-onset chest pain, the subject was evaluated in-person by the study physician to determine whether the pain was cardiovascular or musculoskeletal, or reflects acute panic/anxiety. Vital signs and ECG were monitored and compared to baseline measurements for evidence of acute ischemia. […]
Vital signs, such as BP and heart rate, were recorded at the dosing session, the day following dosing, and at Weeks 6, 10, and 14 (4, 8, and 12 weeks after the dosing session). […]
Adverse events (AEs) were monitored throughout the study. […]

The mark [9] stands for this setting: day 0 (day of administration of psilocybin, 25 mg oral).
The mark [10] stands for this setting: day 0, after dosing (25 mg oral).
The mark [11] stands for this setting: day 27 after single 25 mg oral dose with psychotherapy.
The mark [12] stands for this setting: day −42 relative to dosing day (baseline, before psilocybin).

For the compound `Clc1cccc(N2CCNCC2)c1` [m-chlorophenylpiperazine], the “Effect on 2-deoxy-D-glucose-induced hyperphagia” value in [1] is reported as “inhibited”.
Regarding `CN(C)CCc1c[nH]c2cccc(O)c12` [psilocin], the “Brain regions with highest levels of psilocin” value in [2] was “neocortex, hippocampus, and thalamus”. The “Time to maximum plasma levels” value in data set [3] (post-administration of oral psilocybin) was “approximately 90 minutes”. Also, the “Fraction of total psilocin absorbed from the digestive tract” value in data set [3] (psilocybin administered orally) is “approximately 50%”. In [4] (after administration of the parent compound (oral psilocybin)), the “Time until psilocin is detectable in plasma” value is ≤ 20 min. For the same compound, the Half-life in blood in data set [4] (in vivo) is 2 to 3 h.
On to `CN(C)CCc1c[nH]c2cccc(OP(=O)(O)O)c12` [psilocybin, 3-[2-(dimethylamino)ethyl]-1H-indol-4-yl]dihydrogen phosphate], for which, in [5], the Tolerability entry is on record as “well tolerated”. For the same compound, in data set [6] (3 subjects for whom data was available), the “Persistence of decrease in FBE after administration” value is reported as “over 80 days”. In [6] (4 of 5 subjects, four-week post-dosing measurement period), the “Reduction of daily instances of feeling lost control over eating, 4 of 5 subjects” value is “greater than 70%”. In addition, the “Reduction in daily binge eating episodes from baseline, 4 of 5 subjects” value in data set [6] (4 of 5 subjects, four-week post-dosing measurement period, FIG. 3A) was ≥ 75%. Further, the “Reduction of daily instances of feeling lost control over eating, average (Eating Questionnaire Q2)” value in data set [6] (5 subjects, four-week post-dosing measurement period, FIG. 3B) is given as 81.6%. The “Duration of effects on BED symptom improvement” value in data set [6] (after administration of a single dose) is reported as ≥ 80 days. The “Persistence of decrease in FBE after administration” value in data set [6] (all 4 subjects for whom data was available) is listed as ≥ 50 days. Moreover, the “Daily reduction in binge eating episodes from baseline, all subjects” value in data set [6] (all 5 subjects, four-week post-dosing measurement period) is recorded as “at least 60%”. Moreover, the “Reduction of daily binge eating episodes from baseline, average (Eating Questionnaire Q1)” value in data set [6] (average across 5 subjects, four-week post-dosing measurement period, single 25 mg oral dose) stood at 80.4%. In addition, in data set [6] (setting [9]), the BMI was determined as 43.5 kg/m^2 and the Waist circumference worked out at 105.9 cm. In [6] (setting [10]), the “HADS Anxiety Score” value is reported as 6 and the “HADS Depression Score” value stood at 6. Besides, in data set [6] (day 0, before dosing), the “HADS Anxiety Score” value is recorded as 5 and the “HADS Depression Score” value is given as 5. Further, in [6] (day 13 after dosing), the “Acceptance and Action Questionnaire (AAQ-II) score” value (shortened to “Acceptance and Action Questionnaire”) is given as 10; the “HADS Anxiety Score” value worked out at 4; the “HADS Depression Score” value worked out at 0; the “Patient Global Impression (PGI-I) score” value came to 1. In [6] (day 27 after dosing), the “Acceptance and Action Questionnaire” value was 10; the “HADS Anxiety Score” value came to 2; the “HADS Depression Score” value is given as 1; the “Patient Global Impression (PGI-I) score” value is recorded as 1. Also, in data set [6] (setting [11]), the BMI came to 42.5 kg/m^2 and the Waist circumference was found to be 104.4 cm. Moreover, the “Binge Eating Scale (BES) score” value in data set [6] (day 27 after single 25 mg oral dose) is 5. Besides, in data set [6] (day −42 (baseline)), the “Acceptance and Action Questionnaire” value is 13; the “HADS Anxiety Score” value is 5; the “HADS Depression Score” value was determined as 5; the “Binge Eating Scale (BES) score” value was found to be 13. In data set [6] (setting [12]), the BMI amounted to 42.9 kg/m^2 and the Waist circumference is 106.6 cm. Moreover, the “Most active metabolic organs for initial psilocybin metabolism” value in the data set with tissue phosphatases was “kidneys as being among the most active metabolic organs”. In data set [7] (CEQ ranges from 0.000 to 1.000), the “Challenging Experience Questionnaire score: Death” value worked out at 0, the “Challenging Experience Questionnaire score: Fear” value is given as 0.16, the “Challenging Experience Questionnaire score: Grief” value is given as 0 and the “Challenging Experience Questionnaire score: Insanity” value turned out to be 0. Further, in data set [7] (CEQ ranges from 0.000 to 1.000), the “Challenging Experience Questionnaire score: Isolation” value is given as 0, the “Challenging Experience Questionnaire score: Paranoia” value stood at 0, the “Challenging Experience Questionnaire score: Physical Distress” value is recorded as 0.24 and the “Challenging Experience Questionnaire score: Total Score” value was 0.06. In data set [7] (MEQ30 ranges from 0% to 100%), the “MEQ30 score: Ineffability” value is 80%, the “MEQ30 score: Mystical” value came out at 45.33%, the “MEQ30 score: Positive mood” value stood at 93.33% and the “MEQ30 score: Total Score” value is 58.67%. For the same compound, in data set [7] (MEQ30 ranges from 0% to 100%), the “MEQ30 score: Transcendence of time and space” value amounted to 46.67%. Moreover, the Drug-related adverse events entry in data set [8] (5 subjects, four-week period following administration) was “No drug-related adverse events were reported”. Moreover, the “Changes in heart rate or blood pressure” value in data set [8] (one subject, 25 mg oral dose) is reported as “No substantial changes were observed”. The Adverse events entry in data set [8] (one subject, during the administration or the integration sessions) was “No adverse events were observed”. In addition, the Bioavailability in [4] (oral) is listed as ~50%.

The values are drawn from patent US20250325571A1, “TREATMENT OF BINGE EATING DISORDER USING PSYCHEDELICS” (TRYP Therapeutics Inc., priority 2022, published 2025).
